Results published in ChEMBL document CHEMBL5252583, “Cancer cell growth suppressibility of ω-3 fatty acid whose carboxy group converted to ester group” (Bioorg Med Chem Lett, 2023).

Experiments:
MIA PaCa-2 = assay: Antiproliferative activity against human MIA PaCa-2 cells assessed as cell growth inhibition at 500 uM measured after 24 hrs by alamar blue assay relative to control; format: functional
MCF7 = assay: Antiproliferative activity against human MCF7 cells assessed as cell growth inhibition at 500 uM measured after 24 hrs by alamar blue assay relative to control; format: functional
[1] = Drug uptake in human MIA PaCa-2 cells assessed as increase in incorporation of compound into lipid droplets by measuring absorbance at 50 uM incubated for 24 hrs by Oil Red O staining based fluorescence microscopic analysis (reference value: 2.35 +/- 0.11 10^-2No_unit); format: ADME, cell-based; conditions: mia paca-2, 24 h
HCT-116 = assay: Antiproliferative activity against human HCT-116 cells assessed as cell growth inhibition at 500 uM measured after 24 hrs by alamar blue assay relative to control; format: functional

SMILES	inhibition at 500 µM (MIA PaCa-2)	inhibition at 500 µM (MCF7)	Activity [1]	inhibition at 500 µM (HCT-116)
CC/C=C\C/C=C\C/C=C\CCCCCCCC(=O)Oc1ccccc1	23%	48%	4.12 10^-2No_unit	36%
CC/C=C\C/C=C\C/C=C\CCCCCCCC(=O)Oc1ccc(OC)cc1	26%	49%	3.94 10^-2No_unit	40%
CC/C=C\C/C=C\C/C=C\CCCCCCCC(=O)Oc1ccc(C(F)(F)F)cc1	25%	47%	4.07 10^-2No_unit	37%
CC/C=C\C/C=C\C/C=C\CCCCCCCC(=O)O [LINOLENIC ACID]	25%	50%	4.19 10^-2No_unit	36%
